Assay results published in patent publication US6613765B1, “Use of NK-1 receptor antagonists for treating major depressive disorders” (Merck Sharp & Dohme Limited, priority 1996, dated 2003).

Assays:
[1] = test system: separation-induced vocalisations by guinea-pig pups; assay: Separation-induced vocalisation in guinea-pig pups; format: in vivo; details: p.o.
Method: ASSAY 4: Separation-induced Vocalisation
On test days each pup receives an oral dose or an s.c. or i.p. injection of test compound or vehicle and is then immediately returned to the home cage with its mother and siblings for 30 to 60 minutes (or for up to 4 hours following an oral dose, dependent upon the oral pharmacokinetics of the test compound) before social isolation for 15 minutes as described above. […] Between 6 and 8 animals receive each test compound at each dose tested.

[2] = test system: foot tapping in gerbils induced by central injection of an NK1 agonist; assay: Gerbil foot-tapping induced by central infusion of NK-1 receptor agonist GR73632; format: in vivo, Mongolian gerbils; details: i.v.
From the text: ASSAY 2: Gerbil Foot-tapping
CNS-penetrant NK-1 receptor antagonists for use in the present invention can be identified by their ability to inhibit foot tapping in gerbils induced by anxiogenic agents (such as pentagastrin) or central infusion of NK-1 receptor agonists such as GR73632, or caused by aversive stimulation such as foot shock or single housing, based on the method of Rupniak & Williams, Eur. J. Pharmacol., 1994, 265, 179.
Male or female Mongolian gerbils (35-70 g) are anaesthetised by inhalation of an isoflurane/oxygen mixture to permit exposure of the jugular vein in order to permit administration of test compounds or vehicle in an injection volume of 5 ml/kg i.v. Alternatively, test compounds may be administered orally or by subcutaneous or intraperitoneal routes. A skin incision is then made in the midline of the scalp to expose the skull. […]

human NK-1 receptor = biological target: T1, human NK-1 receptor (Homo sapiens, UniProt P25103); assay: NK-1 receptor binding (125I-Tyr8-substance P, intact CHO cells); details: CHO cells expressing the human NK-1 receptor
T1 construct: expressed in transfected cells; host or cells: CHO (Chinese hamster ovary) cells, intact
T1 sequence (P25103 whole entry): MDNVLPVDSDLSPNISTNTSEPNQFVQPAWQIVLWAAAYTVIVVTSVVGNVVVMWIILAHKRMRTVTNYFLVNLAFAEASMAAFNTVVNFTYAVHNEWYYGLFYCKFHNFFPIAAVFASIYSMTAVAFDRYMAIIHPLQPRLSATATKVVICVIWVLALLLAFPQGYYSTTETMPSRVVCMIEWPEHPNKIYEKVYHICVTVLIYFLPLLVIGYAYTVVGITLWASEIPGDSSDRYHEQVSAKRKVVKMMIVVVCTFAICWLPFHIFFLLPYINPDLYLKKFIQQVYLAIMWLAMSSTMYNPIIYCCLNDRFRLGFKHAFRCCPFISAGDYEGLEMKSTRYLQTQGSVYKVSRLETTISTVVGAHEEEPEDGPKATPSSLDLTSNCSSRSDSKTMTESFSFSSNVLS
Method: NK-1 receptor binding assays are performed in intact Chinese hamster ovary (CHO) cells expressing the human NK-1 receptor using a modification of the assay conditions described by Cascieri et al, J. Pharmacol. Exp. Ther., 1992, 42, 458. Typically, the receptor is expressed at a level of 3×10^5 receptors per cell. Cells are grown in monolayer culture, detached from the plate with enzyme-free dissociation solution (Speciality Media Inc.), and washed prior to use in the assay. ^125I-Tyr^8-substance P (0.1 nM, 2000 Ci/mmol; New England Nuclear) is incubated in the presence or absence of test compounds (dissolved in 5 μl dimethylsulphoxide, DMSO) with 5×10^4 CHO cells. Ligand binding is performed in 0.25 ml of 50 mM Tris-HCl, pH 7.5, containing 5 mM MnCl2, 150 mM NaCl, 0.02% bovine serum albumin (Sigma), 50 μg/ml chymostatin (Peninsula), 0.1 nM phenylmethylsulphonyl fluoride, 2 μg/ml pepstatin, 2 μg/ml leupeptin and 2.8 μg/ml furoyl saccharine. The incubation proceeds at room temperature until equilibrium is achieved (>40 minutes) and the receptor-ligand complex is harvested by filtration over GF/C filters pre-soaked in 0.1% polyethylenimine using a Tomtek 96-well harvester. Non-specific binding is determined using excess substance P (1 μM and represents <10% of total binding.

melting point | IC50 (human NK-1 receptor) | Structure (SMILES) | guinea-pig vocalisation (4 hr. pre-treatment): ID50 [1] | gerbil foot-tapping (5 mins.): ID50 ([2]; 5 mins.) | gerbil foot-tapping (24 hrs.): ID60 ([2]; 24 hrs. prior to agonist challenge)
214 to 216 °C | – | Cl.FC(F)(F)Oc1ccc(OC2CC2)c([C@H]2CO[C@]3(CCCN[C@H]3c3ccccc3)C2)c1 | – | – | –
– | 0.12 nM | OC[C@@H](O[C@H]1OCCN(Cc2nc[nH]n2)[C@H]1c1ccc(F)cc1)c1cc(C(F)(F)F)cc(C(F)(F)F)c1 [2-(R)-(1-(S)-(3,5-bis(trifluoromethyl)phenyl)-2-hydroxyethoxy)-3-(S)-(4-fluorophenyl)-4-(1,2,4-triazol-3-yl)methylmorpholine] | ID50 = 0.91 mg/kg p.o. | ID50 = 0.38 mg/kg i.v. | ID60 = 2.2 mg/kg i.v.
